Measured values reported in PMC10033419, “Blocking NS3–NS4B interaction inhibits dengue virus in non-human primates” (Nature, 2023).
“And” between values parts separate entries of the source, which are not always exact repeats. Equal entries are not always repeated. Where two headings read alike, the source gives them in different places.

Tests used:
[1] = Toxicity by high-content imaging; type: cell-based, Aedes albopictus; details: Aedes albopictus, C6/36 cells
Method: (§1) A potential toxic effect on host cells was tested in parallel, while omitting virus infection, using the MTS/PMS method (Promega) for Vero cells, or by high-content imaging for C6/36 cells, as described previously. […] RT–qPCR data were analysed using the QuantStudio 12K Flex software (v.1.2.3) or SDS v.1.2 Applied Biosystems software. Inhibition values for antiviral molecules were plotted using KaleidaGraph plotting software (v.4.03, Synergy Software).

C6/36 cells = experiment: Toxicity by high-content imaging; type: cell-based, Aedes albopictus; details: C3/36 cells; read-out: CC50, individual values
Method: as §1

RSV rgRSV224 = experiment: microbe, parasite or virus in culture; type: cell-based; details: human respiratory syncytial virus, HeLa
TOX-MT4LTRLUC = type: cell-based; details: human, MT4LTRLUC cells
Description: Supplement 41586_2023_5790_MOESM14_ESM.xlsx, sheet "Ext. Data Table 1" | column: Mean

[2] = test system: subgenomic DENV-2/16681 reporter replicon (WT or NS4B mutants); experiment: microbe, parasite or virus in culture; type: cell-based; details: for FC: fold change of EC50 vs WT
DENV-2/16681 = experiment: NHP DENV-2 study, anti-DENV IgG ELISA; design: species or system rhesus macaques (M. mulatta); details: rhesus monkey, in vivo
[3] = type: in vivo, rhesus macaques
Description: WRAIR is fully accredited by AAALAC International.

in vivo = details: rhesus monkey, iv, 1 mg/kg
Method: After single intravenous administration, the monkey blood was collected at the BPRC just before dosing, and at 0.05, 0.15, 0.5, 4, 6, 8, 24, 48 and 264 h after dosing. After oral administration, the monkey blood was collected at the BPRC on the first and last day of dosing just before dosing and at 1, 2, 4, 6, 8 and 24 h after dosing that day. Moreover, blood samples were taken on days 3, 6 and 7 after infection just before dosing. For the study at WRAIR, the monkey blood was collected just before dosing and at 1, 4, 8 and 24 h after the first day of dosing and before dosing and at 2, 5, 8, 24 and 96 h after the last day of dosing. Furthermore, blood samples were taken on days 0, 2, 5 and 8 after infection just before dosing. […] A volume of 1 ml blood was collected into a blood collection tube coated with EDTA as anti-coagulant. Within 1 h after collection, the blood samples were centrifuged in a precooled centrifuge for 10 min at 1,500g (4 °C). Within 2 h after blood collection, the plasma samples were stored at −80 °C until shipment. Individual plasma concentration–time profiles were processed for a non-compartmental pharmacokinetics analysis using Phoenix WinNonlin v.6.3. (Certara).

Q: What does the source list for COc1cc(N[C@H](C(=O)c2c[nH]c3ccc(OC(F)(F)F)cc23)c2ccc(Cl)cc2OC)cc(S(C)(=O)=O)c1 [JNJ-1802]?
A: CC50 ([1]; C3/36 cells, mean, read-out: CC50 Mean): 14400 nM; CC50 ([1]; C3/36 cells, read-out: CC50, individual values): 13700 nM; CC50 ([1]; C6/36, read-out: CC50): 14400 ± 1100 nM; CC50 (C6/36 cells): 15200 nM; EC50 (RSV rgRSV224; read-out: EC50, Mean): 3180 nM; EC90 (RSV rgRSV224; read-out: EC90, Mean): 5460 nM; CC50 (TOX-MT4LTRLUC): 8140 nM; CC90 (TOX-MT4LTRLUC): 21200 nM; EC50 ([2]; Dengue virus, DENV2, NS4B L94F_V91A_T108I replicon SDM210002): 2380 nM; EC50 ([2]; NS4B A222S replicon SDM200008, read-out: EC50): 0.35 nM; EC50 ([2]; NS4B F237Y replicon SDM140022, Huh7 transient, listed as 64281802-AAA, read-out: EC50): 7.9 nM and 11 nM and 9.2 nM; EC50 ([2]; NS4B L94F_V91A_T108I replicon SDM210002, listed as 64281802-AAA): 2350 nM and 2290 nM; EC50 ([2]; NS4B V91A replicon SDM140014, Huh7 transient, listed as 64281802-AAA, read-out: EC50): 40 nM and 47 nM and 58 nM and 50 nM; EC50 ([2]; NS4B V219A replicon SDM200007, listed as 64281802-AAA, read-out: EC50): 0.6 nM and 0.52 nM and 0.63 nM and 0.92 nM and 0.78 nM; EC50 ([2]; WT replicon pFK-sgDVs-R2A-SDM120005, Huh7 transient): 0.33 nM; FC ([2]; NS4B A222S, listed as 64281802-AAA): 1.1 and 1.2 and 0.9 and 1.3 and 1.4; FC ([2]; NS4B F237Y, listed as 64281802-AAA): 46.0 and 32.0 and 23.0; FC ([2]; NS4B L94F_V91A_T108I, listed as 64281802-AAA): 3872.3 and 4594.9 and 4248.1; FC ([2]; NS4B M183T, listed as 64281802-AAA): 1.1 and 1.2 and 1.6 and 1.4; FC ([2]; NS4B S85L, listed as 64281802-AAA): 3.1 and 3.4 and 3.6 and 4.3 and 4.0; FC ([2]; NS4B T195A, listed as 64281802-AAA): 2.9 and 3.2 and 2.4 and 3.7 and 3.5; FC ([2]; NS4B V91A, listed as 64281802-AAA): 232.0 and 190.0 and 127.0 and 176.0; FC ([2]; NS4B V219A, listed as 64281802-AAA): 1.8 and 1.9 and 1.5 and 1.4; IgG seroconversion (DENV-2/16681): observed at later timepoints; animals with detectable anti-DENV IgG (DENV-2/16681): none of the animals; Weight change (%) ([3]; Day 1, individual animals): -0.3571% and -0.3226%; Weight change (%) ([3]; Day 3, individual animals): -0.3571%; Weight change (%) ([3]; Day 5, individual animals): 0.3226%; Weight change (%) ([3]; Day 8, individual animals): 1.143%; Weight change (%) ([3]; Day 9, individual animals): -1.29%; Weight change (%) ([3]; Day 10, individual animals): 0.3226%; Weight change (%) ([3]; Day 29, individual animals): 1.711%; Weight change (%) ([3]; Day -2, individual animals): -0.3571% and 0.3226%; AUC(0-inf) (in vivo; female, in vivo): 11800 ng·h/mL; AUC(0-t) (in vivo; female, plasma): 6730 ng·h/mL; clearance (in vivo; female, plasma): 1.67 ± 0.74 mL/min/kg; half-life (in vivo; female, plasma): 50 ± 12 h; Vdssp (in vivo; in vivo): 3.93 ± 1.18 L/kg
